Experimental findings from US10336792B2, “Antimicrobial peptide dendrimers” (priority 2014, dated 2019) are described below.

Structures are written as SMILES. Values after ≈ are worked out from the molar mass of the structure shown. Positions of bridges follow the written chain, without caps; N, C: chain ends. Non-standard residues stand in square brackets, D forms with d. Residues, ends and D or L forms follow the SMILES beside them. Groups on a side chain read outwards from the residue. Chains are numbered I, II in the order given. *: point of attachment. LeuLys(Leu) = CC(C)C[C@H](N)C(=O)NCCCC[C@H](NC(=O)[C@@H](N)CC(C)C)C(=O)*; Dab = NCC[C@H](N)C(=O)O

For this assay, the system named is Pseudomonas aeruginosa (strain PA01). In words: microbe, parasite or virus in culture. In kind it is cell-based. Conditions: strain. On the procedure: Antimicrobial activity was assayed against Bacillus subtilis (strain BR151), Escherichia coli (strain DH5α) and Pseudomonas aeruginosa (strain PA01). Microdilution broth method was used to determine the minimal inhibitory concentration (MIC). A colony of bacteria was grown in LB-medium overnight at 37° C. The concentration was quantified by measuring absorbance at 600 nm and diluted to OD600=0.1 (1×10^8 CFU/mL). The samples were prepared as stock solutions of 1 mg mL^−1 in H2O and diluted serially by ⅔ in nutrient LB in a 96-well microtiterplate (Cornstar, polypropylene, untreated). The sample solutions (50 μL) were mixed with the diluted bacterial suspension with an OD600 nm of 0.001 (50 μL). […] The plates were incubated at 37° C. until satisfactory growth (18-24 h). For each test, two columns of the plate were kept for sterility control (SC, broth only) and growth control (GC, broth with bacterial inoculums, no antibiotics). 10 μL of a solution of MTT (0.1% in H2O) was added to each well. The minimal inhibitory concentration (MIC) was defined as the lowest concentration of the antimicrobial substance (peptide dendrimer) that inhibited visible growth of the tested bacteria (yellow) with the unaided eye. For microbiological study the linear peptide LysTyrLysLysAlaLeuLysLysLeuAlaLysLeuLeu (SEQ ID No. 1) was used as reference.
All peptides were tested for their activity against P. aeruginosa PAO1 in a broth dilution assay (Wiegand, I. et al., 2008, Nat. Protoc., 3, 163-75; Clinical and Laboratory Standards Institute document M7-A7 7th Edition) to determine the MIC (minimal inhibitory concentration) values. The stock solutions of the peptide dendrimers were diluted serially by ⅔ in nutrient LB in 96-well microtiter plates. Bacteria were grown in nutrient LB overnight at 37° C. After dilution the bacteria were added to the peptides and incubated overnight (18-24 h) at 37° C. […] The position of the amino acids between the branching units seems to be optimal if the hydrophobic amino acid is the first counting from C-terminus and the charged one is on the second position. Introducing Ala as additional hydrophobic amino acid reduces activity (MSt-120). […] Also assembling charged or hydrophobic sections between the branching units leads to loss of activity whereas altering L-amino acids to D-amino acids maintains activity leading to the hypothesis that the mechanism of action should not be receptor mediated.
As for `CC(C)C[C@H](NC(=O)[C@H](CCCCN)NC(=O)[C@H](CCCCNC(=O)[C@H](CC(C)C)NC(=O)[C@H](CCCCN)NC(=O)[C@H](CCCCNC(=O)[C@H](CC(C)C)NC(=O)[C@@H](N)CCCCN)NC(=O)[C@H](CC(C)C)NC(=O)[C@@H](N)CCCCN)NC(=O)[C@H](CC(C)C)NC(=O)[C@H](CCCCN)NC(=O)[C@H](CCCCNC(=O)[C@H](CC(C)C)NC(=O)[C@@H](N)CCCCN)NC(=O)[C@H](CC(C)C)NC(=O)[C@@H](N)CCCCN)C(N)=O` [MSt-146, (KL)4(KKL)2(KKL)] (I: H-KLK([Leu-Lys])KLKKL-NH2 / II: H-KLK([Leu-Lys])KL; amide I:6-II:C), the “MIC P. aeruginosa PAO1” value is 7 µg/mL (≈ 3.35 µM).
Take `CC(C)C[C@H](NC(=O)[C@H](CCCCNC(=O)[C@H](CCCCN)NC(=O)[C@H](CCCCNC(=O)[C@@H](N)CC(C)C)NC(=O)[C@@H](N)CC(C)C)NC(=O)[C@H](CCCCN)NC(=O)[C@H](CCCCNC(=O)[C@@H](N)CC(C)C)NC(=O)[C@@H](N)CC(C)C)C(=O)NCCCC[C@H](NC(=O)[C@H](CC(C)C)NC(=O)[C@H](CCCCNC(=O)[C@H](CCCCN)NC(=O)[C@H](CCCCNC(=O)[C@@H](N)CC(C)C)NC(=O)[C@@H](N)CC(C)C)NC(=O)[C@H](CCCCN)NC(=O)[C@H](CCCCNC(=O)[C@@H](N)CC(C)C)NC(=O)[C@@H](N)CC(C)C)C(=O)N[C@@H](CCCCN)C(N)=O` [MSt-147, (L)8(KK)4(KL)2(KK)] (I: H-LK(Leu)KK([Lys-LeuLys(Leu)])LKK-NH2 / II: H-LK(Leu)KK([Lys-LeuLys(Leu)])L; amide I:6-II:C): the “MIC P. aeruginosa PAO1” value was 12 µg/mL (≈ 4.47 µM).
As to `CC(C)C[C@H](NC(=O)[C@H](CCN)NC(=O)[C@H](CCCCNC(=O)[C@H](CC(C)C)NC(=O)[C@H](CCN)NC(=O)[C@H](CCCCNC(=O)[C@H](CC(C)C)NC(=O)[C@@H](N)CCN)NC(=O)[C@H](CC(C)C)NC(=O)[C@@H](N)CCN)NC(=O)[C@H](CC(C)C)NC(=O)[C@H](CCN)NC(=O)[C@H](CCCCNC(=O)[C@H](CC(C)C)NC(=O)[C@@H](N)CCN)NC(=O)[C@H](CC(C)C)NC(=O)[C@@H](N)CCN)C(N)=O` [MSt-201, (DabL)4(KDabL)2(KDabL)] (I: H-[Dab]LK([Leu-Dab])[Dab]LK[Dab]L-NH2 / II: H-[Dab]LK([Leu-Dab])[Dab]L; amide I:6-II:C; N-terminus assumed), the “MIC P. aeruginosa PAO1” value was found to be 5 µg/mL (≈ 2.64 µM).
On to `CC(C)C[C@H](NC(=O)[C@H](CCCCN)NC(=O)[C@H](CCCCN)NC(=O)[C@H](CCCCNC(=O)[C@H](CC(C)C)NC(=O)[C@H](CCCCN)NC(=O)[C@H](CC(C)C)NC(=O)[C@H](CCCCNC(=O)[C@H](CC(C)C)NC(=O)[C@H](CCCCN)NC(=O)[C@H](CCCCNC(=O)[C@H](CC(C)C)NC(=O)[C@@H](N)CCCCN)NC(=O)[C@H](CC(C)C)NC(=O)[C@@H](N)CCCCN)NC(=O)[C@H](CC(C)C)NC(=O)[C@H](CCCCN)NC(=O)[C@H](CCCCNC(=O)[C@H](CC(C)C)NC(=O)[C@@H](N)CCCCN)NC(=O)[C@H](CC(C)C)NC(=O)[C@@H](N)CCCCN)NC(=O)[C@H](CC(C)C)NC(=O)[C@H](CCCCN)NC(=O)[C@H](CC(C)C)NC(=O)[C@H](CCCCNC(=O)[C@H](CC(C)C)NC(=O)[C@H](CCCCN)NC(=O)[C@H](CCCCNC(=O)[C@H](CC(C)C)NC(=O)[C@@H](N)CCCCN)NC(=O)[C@H](CC(C)C)NC(=O)[C@@H](N)CCCCN)NC(=O)[C@H](CC(C)C)NC(=O)[C@H](CCCCN)NC(=O)[C@H](CCCCNC(=O)[C@H](CC(C)C)NC(=O)[C@@H](N)CCCCN)NC(=O)[C@H](CC(C)C)NC(=O)[C@@H](N)CCCCN)C(N)=O` [YGO-008, (KL)8(KKL)4(KLKL)2(KKKL)] (I: H-KLK([Leu-Lys])KLKLKLKKKL-NH2 / II: H-KLK([Leu-Lys])KLKLKL / III: H-KLK([Leu-Lys])KL / IV: H-KLK([Leu-Lys])KL; amide I:6-IV:C, I:10-II:C, II:6-III:C), for which the “MIC P. aeruginosa PAO1” value was found to be 2 µg/mL (≈ 0.409 µM).
Consider `CC(C)C[C@H](NC(=O)[C@H](CC(C)C)NC(=O)[C@H](CCCCN)NC(=O)[C@H](CCCCNC(=O)[C@H](CC(C)C)NC(=O)[C@H](CCCCN)NC(=O)[C@H](CC(C)C)NC(=O)[C@H](CCCCNC(=O)[C@H](CC(C)C)NC(=O)[C@H](CCCCN)NC(=O)[C@H](CCCCNC(=O)[C@H](CC(C)C)NC(=O)[C@@H](N)CCCCN)NC(=O)[C@H](CC(C)C)NC(=O)[C@@H](N)CCCCN)NC(=O)[C@H](CC(C)C)NC(=O)[C@H](CCCCN)NC(=O)[C@H](CCCCNC(=O)[C@H](CC(C)C)NC(=O)[C@@H](N)CCCCN)NC(=O)[C@H](CC(C)C)NC(=O)[C@@H](N)CCCCN)NC(=O)[C@H](CC(C)C)NC(=O)[C@H](CCCCN)NC(=O)[C@H](CC(C)C)NC(=O)[C@H](CCCCNC(=O)[C@H](CC(C)C)NC(=O)[C@H](CCCCN)NC(=O)[C@H](CCCCNC(=O)[C@H](CC(C)C)NC(=O)[C@@H](N)CCCCN)NC(=O)[C@H](CC(C)C)NC(=O)[C@@H](N)CCCCN)NC(=O)[C@H](CC(C)C)NC(=O)[C@H](CCCCN)NC(=O)[C@H](CCCCNC(=O)[C@H](CC(C)C)NC(=O)[C@@H](N)CCCCN)NC(=O)[C@H](CC(C)C)NC(=O)[C@@H](N)CCCCN)C(N)=O` [YGO-009, (KL)8(KKL)4(KLKL)2(KKLL)] (I: H-KLK([Leu-Lys])KLKLKLKKLL-NH2 / II: H-KLK([Leu-Lys])KLKLKL / III: H-KLK([Leu-Lys])KL / IV: H-KLK([Leu-Lys])KL; amide I:6-IV:C, I:10-II:C, II:6-III:C), for which the “MIC P. aeruginosa PAO1” value stood at 2 µg/mL (≈ 0.41 µM).
On to `CC(C)C[C@H](NC(=O)[C@H](CCCCN)NC(=O)[C@H](CC(C)C)NC(=O)[C@H](CCCCNC(=O)[C@H](CC(C)C)NC(=O)[C@H](CCCCN)NC(=O)[C@H](CCCCNC(=O)[C@H](CC(C)C)NC(=O)[C@@H](N)CCCCN)NC(=O)[C@H](CC(C)C)NC(=O)[C@@H](N)CCCCN)NC(=O)[C@H](CC(C)C)NC(=O)[C@H](CCCCN)NC(=O)[C@H](CCCCNC(=O)[C@H](CC(C)C)NC(=O)[C@@H](N)CCCCN)NC(=O)[C@H](CC(C)C)NC(=O)[C@@H](N)CCCCN)C(=O)NCCCC[C@H](NC(=O)[C@H](CC(C)C)NC(=O)[C@H](CCCCN)NC(=O)[C@H](CC(C)C)NC(=O)[C@H](CCCCNC(=O)[C@H](CC(C)C)NC(=O)[C@H](CCCCN)NC(=O)[C@H](CCCCNC(=O)[C@H](CC(C)C)NC(=O)[C@@H](N)CCCCN)NC(=O)[C@H](CC(C)C)NC(=O)[C@@H](N)CCCCN)NC(=O)[C@H](CC(C)C)NC(=O)[C@H](CCCCN)NC(=O)[C@H](CCCCNC(=O)[C@H](CC(C)C)NC(=O)[C@@H](N)CCCCN)NC(=O)[C@H](CC(C)C)NC(=O)[C@@H](N)CCCCN)C(=O)N[C@@H](CCCCN)C(=O)N[C@@H](CC(C)C)C(=O)N[C@@H](CCCCN)C(N)=O` [YGO-010, (KL)8(KKL)4(KLKL)2(KKLK)] (I: H-KLK([Leu-Lys])KLKLKLKKLK-NH2 / II: H-KLK([Leu-Lys])KLKLKL / III: H-KLK([Leu-Lys])KL / IV: H-KLK([Leu-Lys])KL; amide I:6-IV:C, I:10-II:C, II:6-III:C), for which the “MIC P. aeruginosa PAO1” value stood at 3 µg/mL (≈ 0.614 µM).
With `CC(C)C[C@H](NC(=O)[C@H](CCCCN)NC(=O)[C@H](CC(C)C)NC(=O)[C@H](CCCCNC(=O)[C@H](CC(C)C)NC(=O)[C@H](CCCCN)NC(=O)[C@H](CC(C)C)NC(=O)[C@H](CCCCNC(=O)[C@H](CC(C)C)NC(=O)[C@H](CCCCN)NC(=O)[C@H](CCCCNC(=O)[C@H](CC(C)C)NC(=O)[C@@H](N)CCCCN)NC(=O)[C@H](CC(C)C)NC(=O)[C@@H](N)CCCCN)NC(=O)[C@H](CC(C)C)NC(=O)[C@H](CCCCN)NC(=O)[C@H](CCCCNC(=O)[C@H](CC(C)C)NC(=O)[C@@H](N)CCCCN)NC(=O)[C@H](CC(C)C)NC(=O)[C@@H](N)CCCCN)NC(=O)[C@H](CC(C)C)NC(=O)[C@H](CCCCN)NC(=O)[C@H](CC(C)C)NC(=O)[C@H](CCCCNC(=O)[C@H](CC(C)C)NC(=O)[C@H](CCCCN)NC(=O)[C@H](CCCCNC(=O)[C@H](CC(C)C)NC(=O)[C@@H](N)CCCCN)NC(=O)[C@H](CC(C)C)NC(=O)[C@@H](N)CCCCN)NC(=O)[C@H](CC(C)C)NC(=O)[C@H](CCCCN)NC(=O)[C@H](CCCCNC(=O)[C@H](CC(C)C)NC(=O)[C@@H](N)CCCCN)NC(=O)[C@H](CC(C)C)NC(=O)[C@@H](N)CCCCN)C(N)=O` [YGO-011, (KL)8(KKL)4(KLKL)2(KLKL)] (I: H-KLK([Leu-Lys])KLKLKLKLKL-NH2 / II: H-KLK([Leu-Lys])KLKLKL / III: H-KLK([Leu-Lys])KL / IV: H-KLK([Leu-Lys])KL; amide I:6-IV:C, I:10-II:C, II:6-III:C), the “MIC P. aeruginosa PAO1” value stood at 3 µg/mL (≈ 0.616 µM).
